Measured values: patent publication US12545659B2, “IRAK degraders and uses thereof” (Kymera Therapeutics, Inc., priority 2019, dated 2026)
Read-outs that look alike come from different tables or passages of the source.

Tests used:
[1] = cn_pd bond
[2] = tested on: OCI-LY10 (MYD88 mutant DLBCL cell line); experiment: OCI-LY10 viability, CTG; assay type: cell-based; details: Homo sapiens, OCI-Ly10, read-out: OCI-LY10 Viability, CTG IC50
[3] = tested on: SU-DHL2 (MYD88 mutant DLBCL cell line); experiment: SU-DHL2 viability, CTG; assay type: cell-based; details: Homo sapiens, SU-DHL-2, read-out: SU-DHL2 Viability, CTG IC50
SU-DHL6 (MYD88 WT line) = experiment: SU-DHL6 viability, CTG; assay type: cell-based; details: Homo sapiens, SU-DHL-6, in vitro
U2932 (MYD88 WT line) = experiment: U2932 viability, CTG; assay type: cell-based; details: Homo sapiens, in vitro
OCI-LY19 (MYD88 WT line) = experiment: OCI-LY19 viability, CTG; assay type: cell-based; details: Homo sapiens, in vitro
IRAK4 = biological target: T1, IRAK4 (Homo sapiens, UniProt Q9NWZ3); experiment: IRAK4 MSD Degradation in OCI-LY10; assay type: cell-based; details: OCI-LY10 cells
T1 construct: endogenous in cells; host or cells: OCI-LY10
T1 sequence (Q9NWZ3 1-460): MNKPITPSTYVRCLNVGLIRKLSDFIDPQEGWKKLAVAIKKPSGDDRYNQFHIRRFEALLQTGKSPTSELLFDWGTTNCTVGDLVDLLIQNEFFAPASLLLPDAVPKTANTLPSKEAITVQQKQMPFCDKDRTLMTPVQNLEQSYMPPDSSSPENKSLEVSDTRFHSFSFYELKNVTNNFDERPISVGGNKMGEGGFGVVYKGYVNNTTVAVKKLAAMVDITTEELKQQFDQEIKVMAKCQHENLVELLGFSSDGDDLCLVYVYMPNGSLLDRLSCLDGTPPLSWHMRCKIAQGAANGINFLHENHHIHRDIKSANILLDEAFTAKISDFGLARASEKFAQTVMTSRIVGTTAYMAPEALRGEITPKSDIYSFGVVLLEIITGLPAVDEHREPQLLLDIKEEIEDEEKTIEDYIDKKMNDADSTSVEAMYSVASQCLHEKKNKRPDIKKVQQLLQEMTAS
Procedure, shortened: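 IRAK4 remaining in lysates was read by Meso Scale electrochemiluminescence sandwich (2H9 capture, Y279 plus SULFO-TAG detection). Cells were exposed 4 to 24 h at 37 °C to eight 3-fold dilutions from 1 to 10 μM final top; three-parameter logistic fit gave DC50.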

OCI-LY10 cells = experiment: CTG Cell Viability Assay - OCI-LY10; assay type: cell-based; details: Homo sapiens
Procedure: (§1) Compound-mediated viability effect on OCI-LY10 or SUDHL-2 was quantitatively determined using the CellTiter-Glo® Luminescent Cell Viability Assay kit from Promega (Catalog number G7570) following manufacturer's recommended procedures. Briefly, OCI-LY10 or SUDHL-2 cells were seeded into 384 well plates (Grenier Bio-One, Catalog number 781080) with a density of 10,000 cells per well. Compounds were then added to the assay plate with final top concentration of 10 M and 1:3 dilution series with total of 9 doses. The final DMSO concentration was normalized to 0.2%. The assay plates were incubated at 37° C. for 4 days under 5% CO2. Then the assay plate was equilibrated at room temperature for 10 minutes. To determine cell viability, L CellTiter Glo reagent was added to each well and the assay plate was centrifuged at 1000 rpm for 30 second, incubated at room temperature for 10 min, and analyzed by detecting the luminescence using a multimode plate reader (EnVision 2105, PerkinElmer). The data was then analyzed by software Prism 7.0 from GraphPad and the dose response curves were fit using a three-parameter logistic equation to calculate IC50.

SUDHL-2 cells = experiment: CTG Cell Viability Assay - SUDHL-2; assay type: cell-based; details: Homo sapiens, SU-DHL-2, 96 h
Procedure: as §1

[4] = biological target: T2, Ikaros (protein product of gene IKZF1) (Homo sapiens, UniProt Q13422+Q96SW2); experiment: Ikaros degradation in OCI-LY10 (quantitative immunoblotting); assay type: cell-based; details: OCI-LY10 cells, 6 h, immunoblot relative to actin; read-out: Ikros Degradation in OCI-LY10: DC50
T2 construct: endogenous in cells; host or cells: OCI-LY10
T2 sequence (Q13422 whole entry): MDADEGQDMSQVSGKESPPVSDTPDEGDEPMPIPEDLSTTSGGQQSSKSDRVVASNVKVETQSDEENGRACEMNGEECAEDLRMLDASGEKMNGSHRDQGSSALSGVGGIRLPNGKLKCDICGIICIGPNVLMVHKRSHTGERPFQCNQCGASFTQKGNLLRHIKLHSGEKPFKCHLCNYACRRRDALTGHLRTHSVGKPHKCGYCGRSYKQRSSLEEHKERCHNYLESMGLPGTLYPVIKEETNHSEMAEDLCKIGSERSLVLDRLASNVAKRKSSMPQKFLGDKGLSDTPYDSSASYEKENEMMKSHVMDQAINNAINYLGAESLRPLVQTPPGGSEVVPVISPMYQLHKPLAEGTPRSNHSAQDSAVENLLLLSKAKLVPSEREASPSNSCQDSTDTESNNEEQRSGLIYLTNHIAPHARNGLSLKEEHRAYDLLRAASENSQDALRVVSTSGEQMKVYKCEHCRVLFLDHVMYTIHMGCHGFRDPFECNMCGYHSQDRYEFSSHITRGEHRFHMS
T2 sequence (Q96SW2 whole entry): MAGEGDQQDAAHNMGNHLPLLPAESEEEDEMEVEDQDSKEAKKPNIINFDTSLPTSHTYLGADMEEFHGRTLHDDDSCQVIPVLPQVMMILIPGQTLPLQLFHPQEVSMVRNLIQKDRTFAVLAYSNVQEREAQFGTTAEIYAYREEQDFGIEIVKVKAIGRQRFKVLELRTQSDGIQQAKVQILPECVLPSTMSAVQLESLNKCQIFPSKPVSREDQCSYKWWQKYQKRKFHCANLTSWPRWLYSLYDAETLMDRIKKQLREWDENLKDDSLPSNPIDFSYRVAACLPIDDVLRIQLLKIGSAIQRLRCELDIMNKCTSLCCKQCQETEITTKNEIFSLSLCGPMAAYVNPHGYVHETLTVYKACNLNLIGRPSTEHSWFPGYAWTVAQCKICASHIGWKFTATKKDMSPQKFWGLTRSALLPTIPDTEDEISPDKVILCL
T2 sequence (Q16531 whole entry partner): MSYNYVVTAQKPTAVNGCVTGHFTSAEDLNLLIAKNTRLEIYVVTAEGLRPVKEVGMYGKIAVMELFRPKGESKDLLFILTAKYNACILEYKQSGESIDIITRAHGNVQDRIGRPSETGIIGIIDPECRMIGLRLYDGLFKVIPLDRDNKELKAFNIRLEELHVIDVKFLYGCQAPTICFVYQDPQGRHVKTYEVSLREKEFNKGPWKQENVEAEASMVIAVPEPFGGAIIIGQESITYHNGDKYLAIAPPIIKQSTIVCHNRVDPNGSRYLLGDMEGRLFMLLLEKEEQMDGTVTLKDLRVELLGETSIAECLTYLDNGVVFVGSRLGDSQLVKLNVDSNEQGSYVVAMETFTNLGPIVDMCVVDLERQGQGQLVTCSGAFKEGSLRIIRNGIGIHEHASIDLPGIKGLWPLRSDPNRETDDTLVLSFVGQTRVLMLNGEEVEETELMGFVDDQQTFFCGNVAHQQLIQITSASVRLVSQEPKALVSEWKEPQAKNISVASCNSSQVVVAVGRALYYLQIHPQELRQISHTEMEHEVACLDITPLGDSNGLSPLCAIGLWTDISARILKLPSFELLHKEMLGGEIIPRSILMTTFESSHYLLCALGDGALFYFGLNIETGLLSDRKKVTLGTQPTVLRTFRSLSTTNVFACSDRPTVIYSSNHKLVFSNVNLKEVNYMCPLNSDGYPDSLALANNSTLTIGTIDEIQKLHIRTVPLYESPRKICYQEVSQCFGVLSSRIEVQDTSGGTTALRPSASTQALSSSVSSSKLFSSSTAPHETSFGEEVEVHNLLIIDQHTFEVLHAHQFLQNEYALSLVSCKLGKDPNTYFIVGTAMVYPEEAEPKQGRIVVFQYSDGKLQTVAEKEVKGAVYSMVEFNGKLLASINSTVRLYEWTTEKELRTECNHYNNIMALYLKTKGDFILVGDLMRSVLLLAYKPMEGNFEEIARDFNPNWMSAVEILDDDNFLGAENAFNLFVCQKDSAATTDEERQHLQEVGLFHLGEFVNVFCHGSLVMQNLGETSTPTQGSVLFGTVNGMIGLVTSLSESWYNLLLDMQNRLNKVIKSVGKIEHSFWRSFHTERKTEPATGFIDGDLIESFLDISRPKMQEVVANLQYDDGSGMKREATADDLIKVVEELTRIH
Procedure: (§2) Degradation of Ikaros (protein product of gene IKZF1) and Aiolos (protein product of gene IKZF3) were determined by quantitative immunoblotting as follows. OCI-LY10 cells, 2×10^6 cells/well, were treated with listed concentrations of IRAK4 degraders or control compounds in 6 well plates for 6 h. Cells were collected, washed with cold PBS, lysed in RIPA buffer (Boston BioProducts BP-115D) with protease/phosphatase inhibitor cocktail (Roche 05892791001/Roche 04906837001) and centrifuged at 13000 RPM for 20 min to precipitate insoluble material. The supernatant fraction was diluted in SDS-PAGE loading buffer (Beyotime Bio P0015) and 20 L of each sample was resolved on 4-12% Bis-Tris SDS-PAGE gels (Novex, WG1402BOX). Resolved samples were transferred to nitrocellulose membranes by wet electro-transfer method at […] for 1.5 h. The membrane was blocked with LICOR blocking buffer (LI-COR, 927-50000) for 1 hour, washed three times with TBST (CST #9997S) for 5 minutes each and incubated with primary antibody prepared in block buffer with 0.1% Tween-20 (Solarbio, P8220) at 4° C. overnight. Ikaros antibody was rabbit monoclonal D6N9Y (CST #14859), at 1:1000 dilution. Aiolos antibody was rabbit monoclonal D1C1E (CST #15103), at 1:1000 dilution. Signal was normalized to mouse anti-beta-Actin monoclonal 8H10D10 (CST #3700) used at 1:10,000 dilution. After incubation in primary antibodies, membranes were washed three times with TBST, 5 minutes each, incubated with fluorescently labeled secondary antibodies anti-rabbit IgG (Licor, 926-32211) at 1:5000 dilution; anti-mouse IgG (LI-COR, 926-68070) at 1:5000 dilution, for 1 hour at RT. After incubation in secondary, membranes were washed three times with TBST, 5 minutes each and read on LICOR Odyssey imager. Data was reported as signal for Ikaros or Aiolos relative to signal for actin, and normalized to DMSO-treated control.
(§3) The letter codes for Ikaros and Aiolos DC50 include: A (<0.05 μM); B (0.05-0.1 μM); C (0.1-0.5 μM); D (0.5-1.0 μM); and E (>1.0 μM).

[5] = biological target: T3, Aiolos (protein product of gene IKZF3) (Homo sapiens, UniProt Q9UKT9); experiment: Aiolos degradation in OCI-LY10 (quantitative immunoblotting); assay type: cell-based; details: OCI-LY10 cells, 6 h, immunoblot relative to actin
T3 construct: endogenous in cells; host or cells: OCI-LY10
T3 sequence (Q9UKT9 whole entry): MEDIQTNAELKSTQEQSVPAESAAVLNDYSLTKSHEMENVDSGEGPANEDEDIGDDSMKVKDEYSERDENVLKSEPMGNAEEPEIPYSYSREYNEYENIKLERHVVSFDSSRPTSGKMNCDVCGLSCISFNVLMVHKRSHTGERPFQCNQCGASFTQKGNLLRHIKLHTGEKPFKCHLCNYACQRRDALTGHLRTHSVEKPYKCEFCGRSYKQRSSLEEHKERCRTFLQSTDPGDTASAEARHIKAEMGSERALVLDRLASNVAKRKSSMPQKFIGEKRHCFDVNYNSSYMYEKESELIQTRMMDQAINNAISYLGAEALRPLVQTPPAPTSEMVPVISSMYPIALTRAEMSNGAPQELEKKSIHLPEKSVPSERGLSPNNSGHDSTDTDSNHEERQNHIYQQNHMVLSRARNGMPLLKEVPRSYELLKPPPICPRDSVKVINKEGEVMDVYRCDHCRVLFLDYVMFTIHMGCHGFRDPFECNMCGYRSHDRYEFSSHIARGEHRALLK
T3 sequence (Q96SW2 whole entry, further chain): as the sequence (Q96SW2 whole entry) above
T3 sequence (Q16531 whole entry partner): as the sequence (Q16531 whole entry partner) above
Procedure: as §2, §3

[6] = cn_pd bond, 14-membered ring
[7] = 24 hrs incubation, read-out: IRAK4 degradation in OCI-LY10 at 24 hrs: DC50
[8] = 4 hrs incubation, read-out: IRAK4 degradation in OCI-LY10 at 4 hrs: DC50
[9] = 96 h, OCI-LY10 cells, 4 days, CellTiter-Glo, read-out: CTG Cell Viability Assay - OCI-LY10: IC50
[10] = SUDHL-2 cells, 4 days, CellTiter-Glo, read-out: CTG Cell Viability Assay - SUDHL-2: IC50

Row | DC50 (IRAK4; [8]) [nM] | IC50 (OCI-LY10 cells; [9]) [µM] | DC50 [5] [nM] | Compound | DC50 (IRAK4; [7]) [nM] | DC50 [4] [nM] | also measured
1 |  |  |  | NC(=O)c1cccc(OCCO[C@H]2CCN(c3cc4nn(C5CCC(CO)CC5)cc4cc3Br)C2)c1 (stereo partly shown) |  |  | ring closure, isolated yield ([1]; the molecule shown is the open-chain precursor, 14-membered ring, BrettPhos Pd G3/Cs2CO3, DMA, 100.0 mM, 90.0 °C): 33%
2 |  |  |  | CN(C[C@H]1CC[C@H](n2cc3cc(NC(=O)c4cccc(C(F)(F)F)n4)c(C(C)(C)O)cc3n2)CC1)C1CCN(Cc2cccc3c2n(C)c(=O)n3C2CCC(=O)NC2=O)CC1 (stereo partly shown) [I-1] | 100 to 500 |  | IC50 [2]: > 10000 nM; IC50 [3]: > 10000 nM; IC50 (SU-DHL6 (MYD88 WT line)): 5600 nM; IC50 (U2932 (MYD88 WT line)): > 10000 nM; IC50 (OCI-LY19 (MYD88 WT line)): > 10000 nM
3 | < 50 | < 0.05 | < 50 | COc1cc2nn([C@H]3CC[C@H](CN4CCC5(CC4)CC(CNc4cccc6c4C(=O)N(C4CCC(=O)NC4=O)C6=O)C5)CC3)cc2cc1NC(=O)c1cccc(C(F)(F)F)n1 (stereo partly shown) [I-201, N-[2-[4-[[2-[[[2-(2,6-dioxo-3-piperidyl)-1,3-dioxo-isoindolin-4 yl]amino]methyl]-7-azaspiro[3.5]nonan-7-yl]methyl]cyclohexyl]-6-methoxy-indazol-5-yl]-6-(trifluoromethyl)pyridine-2-carboxamide] | 50 to 100 | 50 to 100 | IC50 (SUDHL-2 cells; [10]): > 1 µM
4 |  |  |  | 12-((1R,4R)-4-(hydroxymethyl)cyclohexyl)-12H-5,10-dioxa-2-aza-1(5,6)-indazola-4(2,6)-pyridinacyclodecaphan-3-one |  |  | ring closure, isolated yield ([1]; 13-membered ring, Pd2(dba)3/Xantphos/Cs2CO3, dioxane, 18.1 mM, 80.0 °C): 55%
5 | < 50 | < 0.05 | < 50 | COc1cc2nn([C@H]3CC[C@H](CN4CC5(CC(CCNc6cccc7c6C(=O)N(C6CCC(=O)NC6=O)C7=O)C5)C4)CC3)cc2cc1NC(=O)c1cccc(C(C)(F)F)n1 (mixture of isomers) [I-93, 6-(1,1-difluoroethyl)-N-[2-[4-[[6-[2-[[2-(2,6-dioxo-3-piperidyl)-1,3-dioxo-isoindolin-4-yl]amino]ethyl]-2-azaspiro[3.3]heptan-2-yl]methyl]cyclohexyl]-6-methoxy-indazol-5-yl]pyridine-2-carboxamide] | 50 to 100 | < 50 | IC50 (SUDHL-2 cells; [10]): 0.1 to 0.5 µM
6 |  |  |  | NC(=O)c1cccc(OCCCCCOc2cc3nn(C4CCC(CO)CC4)cc3cc2Br)n1 (stereo not shown) |  |  | ring closure, isolated yield ([1]; the molecule shown is the open-chain precursor, 14-membered ring, BrettPhos Pd G4/Cs2CO3, DMA, 9.4 mM, 80.0 °C): 39%
7 | < 50 | > 1 |  | COc1cc2nn([C@H]3CC[C@H](CN(C)C4CCN(c5cccc6c5n(C)c(=O)n6C5CCC(=O)NC5=O)CC4)CC3)cc2cc1NC(=O)c1cccc(C(F)(F)F)n1 (stereo partly shown) [I-247, N-[2-[4-[[[1-[1-(2,6-dioxo-3-piperidyl)-3-methyl-2-oxo-benzimidazol-4-yl]-4-piperidyl]-methyl-amino]methyl]cyclohexyl]-6-methoxy-indazol-5-yl]-6-(trifluoromethyl)pyridine-2-carboxamide] |  |  | 
8 |  |  |  | NC(=O)c1cccc(OCCO[C@@H]2CCN(c3cc4nn(C5CCC(CO)CC5)cc4cc3Br)C2)c1 (stereo partly shown) |  |  | ring closure, yield after HPLC ([6]; the molecule shown is the open-chain precursor, BrettPhos-Pd-G4/BrettPhos/Cs2CO3, dioxane, 53.8 mM, 60.0 °C): 31%
9 |  |  |  | 12-((1R,4R)-4-(hydroxymethyl)cyclohexyl)-12H-5,8,11-trioxa-2-aza-1(5,6)-indazola-4(2,6)-pyridinacycloundecaphan-3-one |  |  | ring closure, yield after HPLC ([6]; BrettPhos Pd G4/Cs2CO3, DMA, 21.2 mM, 80.0 °C): 58%

Row | Compound | DC50 (IRAK4; [8]) [nM] | IC50 (OCI-LY10 cells; [9]) [µM] | DC50 [5] [nM] | DC50 (IRAK4; [7]) [nM] | DC50 [4] [nM] | also measured
10 | COc1cc2nn([C@H]3CC[C@H](CN4CCC5(CC4)CC(CCNc4cccc6c4C(=O)N(C4CCC(=O)NC4=O)C6=O)C5)CC3)cc2cc1NC(=O)c1cccc(C(C)(F)F)n1 (stereo partly shown) [I-63, 6-(1,1-Difluoroethyl)-N-[2-[4-[[2-[2-[[2-(2,6-dioxo-3-piperidyl)-1,3-dioxo-isoindolin-4-yl]amino]ethyl]-7-azaspiro[3.5]nonan-7-yl]methyl]cyclohexyl]-6-methoxy-indazol-5-yl]pyridine-2-carboxamide] | < 50 |  | < 50 | 50 to 100 | < 50 | IC50 (OCI-LY10 cells; OCI-Ly10, 96 h, read-out: CTG Cell Viability Assay - OCI-LY10: IC50 (μM)): 0.05 to 0.1 µM; IC50 (SUDHL-2 cells; read-out: CTG Cell Viability Assay - SUDHL-2: IC50 (μM)): 0.1 to 0.5 µM
